Assay [1] relates to serum levels of total IgE. Kind of assay: Total serum IgE by ELISA, OVA/ALUM sensitization and boost in BALB/c mice. The class given is in vivo. The following applies: for IgE levels: THC- or LPI-pretreated B/c mice, OVA/Alum. The method, then:
(§1) In in vivo IgE-induction models using OVA/Alum or KLH/Ribi, the role of GPR55, in cannabinoid effects on antibody production has been investigated. BALB/c (B/c), C57BL/6 (B6), or B6 CB2 deficient (CB2^−/−) mice were pretreated with THC or L-α-lysophosphatidylinositol (LPI) prior to injections with OVA/Alum or KLH/Ribi, followed by boosting with same antigens. The mice were then bled on various days after boosting and total serum IgE was determined.
Mice were pretreated with SR2/Gp1a, Gp1a, or not pretreated, and 18 hrs later were sensitized with OVA/ALUM followed by a boost with same antigen. The sera were collected 6 days after the antigen boost injection and ELISAs were performed for IgE. Data represent sera from 4-8 mice/group+/−SEM. *=p≦0.05 from Normal; #=p≦0.05 from OVA/ALUM or SR2/OVA/ALUM.
In general terms: An ELISA detects its analyte on a solid surface through an enzyme-linked reagent.

Assay [2] deals with serum levels of total IgE. The assay can be described thus: Total serum IgE by ELISA, OVA/ALUM sensitization and boost in C57BL/6 and CB2-/- mice. It counts as in vivo, C57BL/6 (B6) and CB2-/- mice. The following applies: for serum levels of total IgE: THC pretreatment. On the procedure:
FIG. 4 is a graph illustrating that serum levels of total IgE were increased with THC pretreatment over C57BL/6 (B6) mice; CB2 deficient mice (CB2^−/−) over B6; and THC pretreatment CB2^−/− over B6 and THC/B6. SR141716A (SR1; CB1 antagonist) pretreatment of CB2^−/− had little effect on total IgE levels. The mice were treated OVA/ALUM following a boost of same antigen. The sera were collected at Day 5-6 after the boost and ELISAs were performed. Data represent serum from individual mice (4-9 mice/group+/−SEM). *=p≦0.05 from Normal; #=p≦0.05 from OVA/ALUM; ##=p<0.05 from THC/OVA/ALUM
as §1

Assay [3] deals with total serum IgE. The assay can be described thus: Total serum IgE, KLH/RIBI IgE-induction model in B6 and CB2-/- mice. The following applies: compared with OVA/ALUM. It counts as in vivo, C57BL/6 (B6) and CB2-/- mice. The method, then:
as §1

Assay [4] concerns total serum IgE. Kind of assay: Total serum IgE, KLH/Ribi IgE-induction model in BALB/c mice. The class given is in vivo. The following applies: THC-treated B/c mice. On the procedure: as §1

These results are taken from patent US9289421B2, “Methods and compositions for reducing serum levels of immunoglobulin E (IgE)” (priority 2011, dated 2016).

Entries after “also recorded” stand apart in the source; their conditions may differ.

`Cc1ccc2c(c1)Cc1c(C(=O)NN3CCCCC3)nn(-c3ccc(Cl)cc3Cl)c1-2` [Gp1a, N-(Piperidin-1-yl)-1-(2,4-dichlorophenyl)-1,4-dihydro-6-methylindeno[1,2-c]pyrazole-3-carboxamide]: in assay [1] (BALB/c mice, pretreated 18 hrs before OVA/ALUM, sera 6 days after boost), the “serum levels of total IgE” value was “attenuates; also recorded: caused a decrease in IgE”.

Take `Cc1c(C(=O)NN2CCCCC2)nn(-c2ccc(Cl)cc2Cl)c1-c1ccc(Cl)cc1` [SR141716A]: the IgE response result in assay [2] (B6 and CB2-/- mice, CB1 antagonist given prior to THC dosing) is recorded as “only slightly elevated”. Further, in assay [2] (CB2-/- mice, SR1 pretreatment, OVA/ALUM), the “total IgE levels” value was “little effect”.

On to `Cc1ccc(Cn2nc(C(=O)N[C@@H]3C(C)(C)[C@@H]4CC[C@@]3(C)C4)cc2-c2ccc(Cl)c(C)c2)cc1` [SR144528, 5-(4-chloro-3-methylphenyl)-1-[(4-methylphenyl)methyl]-N-[(1S,2S,4R)-1,3,3-trimethylbicyclo[2.2.1]hept-2-yl]-1H-pyrazole-3-carboxamide], for which, in assay [1] (BALB/c mice, co-treatment with Gp1a (SR2/Gp1a), OVA/ALUM), the “effect on the Gp1a attenuation of serum total IgE” value is reported as “reversed; also recorded: reverses the Gp1a effect”.

Turning to `CCCCCc1cc(O)c2c(c1)OC(C)(C)[C@@H]1CCC(C)=C[C@@H]21` [THC, Δ^9-tetrahydrocannabinol], the IgE levels entry is reported as “increased IgE levels greater than OVA/ALUM” in the assay on total serum IgE [3], “elevated” in assay [1] and “elevated” in the assay on total serum IgE [4]. The “serum levels of total IgE” value is given as “increased” in assay [2] (C57BL/6 (B6) mice, OVA/ALUM, sera Day 5-6 after boost); “increased; also recorded: augmented this effect” in assay [2] (CB2-/- mice, OVA/ALUM, vs B6 and THC/B6).

With L-α-lysophosphatidylinositol [LPI], the IgE levels entry in assay [1] is given as “enhanced”.
